Experimental data: ChEMBL document CHEMBL4359839, “The Significance of Chirality in Drug Design and Synthesis of Bitopic Ligands as D3 Receptor (D3R) Selective Agonists” (J Med Chem, 2019)

Key:
[1] = organism: Homo sapiens; assay: Selectivity ratio of Ki for displacement of [3H]-(R)-(+)-7-OH-DPAT from recombinant human D2L receptor expressed in HEK293 cell membranes to Ki for displacement of [3H]-(R)-(+)-7-OH-DPAT from recombinant human D3 receptor expressed in HEK293 cell membranes
[2] = Drug level in rat liver microsomes treated with trans-N-(2-(2-(((2S,5S)-2-(6-Aminopyridin-3-yl)-5-methylmorpholino)methyl)cyclopropyl)ethyl)-1H-indole-2-carboxamide assessed as metabolite formation at 10 uM measured after 60 mins in presence of NADPH by LC-HRMS analysis; assay type: ADME, Microsome
[3] = organism: Homo sapiens; assay: Selectivity ratio of Ki for displacement of [3H]-(R)-(+)-7-OH-DPAT from recombinant human D4.4 receptor expressed in HEK293 cell membranes to Ki for displacement of [3H]-(R)-(+)-7-OH-DPAT from recombinant human D3 receptor expressed in HEK293 cell membranes
[4] = target: D(2) dopamine receptor (Homo sapiens, UniProt P14416); assay: Displacement of [3H]-(R)-(+)-7-OH-DPAT from recombinant human D2L receptor expressed in HEK293 cell membranes measured after 90 mins by microbeta scintillation counting analysis
Chain of D(2) dopamine receptor (P14416 whole entry): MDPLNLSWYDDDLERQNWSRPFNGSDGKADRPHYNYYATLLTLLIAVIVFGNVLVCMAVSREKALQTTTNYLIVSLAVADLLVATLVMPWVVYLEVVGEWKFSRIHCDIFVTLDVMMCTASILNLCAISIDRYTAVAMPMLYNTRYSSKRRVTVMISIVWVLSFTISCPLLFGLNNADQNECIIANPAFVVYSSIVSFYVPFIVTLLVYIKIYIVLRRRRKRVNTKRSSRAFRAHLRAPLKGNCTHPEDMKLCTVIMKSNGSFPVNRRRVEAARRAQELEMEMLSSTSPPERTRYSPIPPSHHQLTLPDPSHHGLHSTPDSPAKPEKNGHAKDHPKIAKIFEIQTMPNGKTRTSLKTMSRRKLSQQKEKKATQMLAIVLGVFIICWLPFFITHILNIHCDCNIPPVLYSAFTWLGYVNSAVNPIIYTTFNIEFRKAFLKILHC

[5] = target: D(3) dopamine receptor (Homo sapiens, UniProt P35462); assay: Displacement of [3H]-(R)-(+)-7-OH-DPAT from recombinant human D3 receptor expressed in HEK293 cell membranes measured after 90 mins by microbeta scintillation counting analysis
Chain of D(3) dopamine receptor (P35462 whole entry): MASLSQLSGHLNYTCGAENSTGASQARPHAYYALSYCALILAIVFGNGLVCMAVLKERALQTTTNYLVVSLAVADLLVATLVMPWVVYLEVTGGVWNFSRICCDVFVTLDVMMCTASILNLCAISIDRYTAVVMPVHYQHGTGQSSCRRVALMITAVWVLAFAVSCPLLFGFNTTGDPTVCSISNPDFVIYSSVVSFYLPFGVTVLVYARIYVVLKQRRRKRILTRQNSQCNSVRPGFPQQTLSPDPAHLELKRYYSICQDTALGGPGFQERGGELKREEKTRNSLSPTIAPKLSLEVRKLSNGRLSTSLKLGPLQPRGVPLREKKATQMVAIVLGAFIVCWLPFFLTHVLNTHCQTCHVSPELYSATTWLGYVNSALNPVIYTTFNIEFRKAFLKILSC

[6] = target: T1, D(4) dopamine receptor (Homo sapiens, UniProt P21917); assay: Displacement of [3H]-(R)-(+)-7-OH-DPAT from recombinant human D4.4 receptor expressed in HEK293 cell membranes measured after 90 mins by microbeta scintillation counting analysis
T1 sequence (P21917 whole entry): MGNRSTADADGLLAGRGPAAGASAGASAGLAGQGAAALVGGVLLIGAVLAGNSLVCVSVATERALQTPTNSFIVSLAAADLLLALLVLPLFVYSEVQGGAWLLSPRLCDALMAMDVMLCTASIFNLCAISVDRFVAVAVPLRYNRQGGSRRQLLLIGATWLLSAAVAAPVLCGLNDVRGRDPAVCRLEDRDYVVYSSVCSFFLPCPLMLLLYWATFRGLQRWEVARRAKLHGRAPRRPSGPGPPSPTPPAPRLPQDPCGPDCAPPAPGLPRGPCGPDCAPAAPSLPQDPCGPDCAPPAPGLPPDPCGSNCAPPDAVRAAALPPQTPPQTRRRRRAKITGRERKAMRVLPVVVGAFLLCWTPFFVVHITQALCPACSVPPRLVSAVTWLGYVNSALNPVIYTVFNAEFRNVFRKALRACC

Structure (SMILES) | Ratio Ki [1] | further results
C[C@H]1CO[C@@H](c2ccc(N)nc2)CN1CC1CC1CNC(=O)c1cc2ccccc2[nH]1 (stereo in doubt; form 4) | 0.435 | –
CCCN1CCO[C@@H]2c3cc(OCCCCNC(=O)c4cc5cccnc5[nH]4)ccc3OC[C@H]21 | 3.12 | –
C[C@H]1CO[C@H](c2ccc(N)nc2)CN1CCCCOc1ccc2c(c1)NC(=O)CC2 | 0.11 | –
CCCN1CCO[C@@H]2c3cc(OCCCCNC(=O)c4ccc5c(c4)Cc4ccccc4-5)ccc3OC[C@H]21 | 8.33 | –
C[C@H]1COC(c2cnc(N)c(O)c2)CN1CC1CC1CCNC(=O)c1cc2ccccc2[nH]1 (stereo partly specified) | – | Drug metabolism [2]: Metabolite_Detected
Oc1ccc2c(c1)[C@H]1OCCN[C@@H]1CO2 | 10.5 | –
CCCN1CCO[C@@H]2c3cc(OCCCCNC(=O)c4cc5ccccc5[nH]4)ccc3OC[C@H]21 | 6.3 | –
CCCN1CCO[C@@H]2c3cc(O)ccc3OC[C@H]21 | 12.1 | Ratio Ki [3]: 15.7
C[C@H]1CO[C@H](c2ccc(N)nc2)CN1C/C=C/COc1ccc2c(c1)NC(=O)CC2 | 0.289 | –
CCCN1CCO[C@@H]2c3cc(OCCCCNC(=O)c4ccc5scnc5c4)ccc3OC[C@H]21 | 4.3 | –
C[C@H]1CO[C@@H](c2ccc(N)nc2)CN1CCCCOc1ccc2c(c1)NC(=O)CC2 | 1.11 | –
C[C@H]1CO[C@@H](c2ccc(N)nc2)CN1 | 5.52 | Drug metabolism [2]: Metabolite_Detected
CCc1cc(Cl)c(OC)c(N2CCN(CCCCOc3ccc4c(c3)NC(=O)CC4)CC2)c1 | 0.0455 | Ki [4]: 0.00186 µM; Ki [5]: 0.0409 µM
C[C@H]1CO[C@H](c2ccc(N)nc2)CN1CC1CC1CNC(=O)c1cc2ccccc2[nH]1 (stereo in doubt; form 1) | 0.431 | –
C[C@H]1CO[C@H](c2ccc(N)nc2)CN1CC1CC1CNC(=O)c1cc2ccccc2[nH]1 (mixture of isomers) [listing 1 of 2 here] | – | Ki [4]: 14.1 µM; Ki [5]: 66.2 µM
C[C@H]1CO[C@@H](c2ccc(N)nc2)CN1CC1CC1CNC(=O)c1cc2ccccc2[nH]1 (stereo in doubt; form 3) | 0.498 | –
C[C@H]1CO[C@@H](c2ccc(N)nc2)CN1CC1CC1CNC(=O)c1cc2ccccc2[nH]1 (stereo in doubt; form 2) | 1.75 | –

Structure (SMILES) | Ratio Ki [1] | further results
CCCN1CCO[C@@H]2c3cc(OCCCCOc4ccc5c(c4)NC(=O)CC5)ccc3OC[C@H]21 | 6.35 | –
C[C@H]1COC(c2ccc(N)nc2)CN1CCCCOc1ccc2c(c1)NC(=O)CC2 (stereo partly specified) | 0.653 | Ratio Ki [3]: 18.6
C[C@H]1CO[C@@H](c2ccc(N)nc2)CN1C/C=C/COc1ccc2c(c1)NC(=O)CC2 | 0.297 | –
C[C@H]1CO[C@@H](c2ccc(N)nc2)CN1CC1CC1CNC(=O)c1cc2ccccc2[nH]1 (stereo in doubt; form 1) | 0.182 | –
CCCN1CCO[C@@H]2c3cc(OCCCCNC(=O)c4nc5ccccc5s4)ccc3OC[C@H]21 | 4.14 | –
O=C(NCCCCNC1COc2ccc(O)cc2C1=O)c1cc2ccccc2[nH]1 (stereo in doubt; 19b) | 0.808 | –
C[C@H]1CO[C@H](c2ccc(N)nc2)CN1CC1CC1CNC(=O)c1cc2ccccc2[nH]1 (mixture of isomers) [listing 2 of 2 here] | 0.213 | –
C[C@H]1CO[C@H](c2ccc(N)nc2)CN1CC1CC1CNC(=O)c1cc2ccccc2[nH]1 (stereo in doubt; form 2) | 0.235 | –
CCCN1CC(c2ccc(N)nc2)OC[C@@H]1C (stereo partly specified) | 9.41 | Ratio Ki [3]: 1.58
C[C@H]1CO[C@H](c2ccc(N)nc2)CN1 | 4.67 | –
CCCN(CCC)c1ccc(C2CN(CCC)[C@@H](C)CO2)cn1 (stereo partly specified) | 0.391 | Ki [6]: > 100 µM
CCCN1CCO[C@@H]2c3cc(OCCCCNC(=O)c4cc5ccccc5o4)ccc3OC[C@H]21 | 1.57 | –
CCCN1CCO[C@@H]2c3cc(OCCCCN4C(=O)c5ccccc5C4=O)ccc3OC[C@H]21 | 2.11 | –
O=C1CCc2ccc(OCCCCN3CCO[C@@H]4c5cc(O)ccc5OC[C@H]43)cc2N1 | 0.554 | –
CC1=COC(c2ccc(N)nc2)CN1CC1CC1CCNC(=O)c1cc2ccccc2[nH]1 (stereo unspecified) | – | Drug metabolism [2]: Metabolite_Detected
O=C(NCCCCNC1COc2ccc(O)cc2C1=O)c1cc2ccccc2[nH]1 (stereo in doubt; 19a) | 0.71 | –
